Results reported in patent US20210393645A1, “TREATMENT FOR PROGRESSIVE MULTIPLE SCLEROSIS” (UTI LIMITED PARTNERSHIP, priority 2016, published 2021).
Counter-ions that a name gives are not always drawn. Positions of bridges follow the written chain, without caps; N, C: chain ends. Non-standard residues stand in square brackets, D forms with d. Residues, ends and D or L forms follow the SMILES beside them. *: point of attachment. Ileψ(thiazoline)Cys = CC[C@H](C)[C@H](N)C1=N[C@H](C(=O)*)CS1; dOrn = NCCC[C@@H](N)C(=O)O

Tested on: human neurons
Experiment: Iron (FeSO4) mediated neurotoxicity screening, MAP-2 positive neurons counted
Assay type: cell-based
Conditions: Homo sapiens, Neuron, 24 h, read-out: Drug % control (mean): number of neurons normalized to untreated control
Description: Human neurons were isolated from brain tissues of therapeutically aborted 15-20 week old fetuses, in accordance with ethics approval of the University of Calgary ethics committee, after written informed consent of the pregnant donors. Neurons were isolated as previously described (Vecil et al., 2000) brain specimens were washed in phosphate buffered saline (PBS) to remove blood, followed by removal of meninges. […] Thereafter, the digestion was stopped by addition of 4 ml fetal calf serum (FCS). […] Cells were cultured in feeding medium of minimal essential medium (MEM) supplemented with 10% fetal bovine serum (FBS), 1 μM sodium pyruvate, 10 μM glutamine, 1× non-essential amino acids, 0.1% dextrose and 1% penicillin/streptomycin (all culture supplements from Invitrogen, Burlington, Canada). […] For experiments, the neuron-enriched cultures were retrypsinized and cells were plated in poly-L-ornithine pre-coated 96-well plates at a density of 100,000 cells/well in 100 μl of the complete medium supplemented with cytosine arabinoside. […] All conditions were performed in quadruplicates. A day later cells were fixed using 4% paraformaldehyde (PFA) and stored in PBS in 4° C.
Briefly, there were 80 compounds located in specific wells on each plate (e. g. B07). […] Each compound was supplied at a concentration of 10 mM dissolved in DMSO.
After filtering with a 0.2 μm filter, FeSO4 was added to cells in a final concentration of 25-50 μM in a volume of 50 μl medium to the cells. Rotenone was dissolved in dimethyl sulfoxide (DMSO) and used in a final concentration of 10 μM.
Staining was performed at room temperature. A blocking buffer was first introduced for 1 h followed by incubation with primary antibody overnight in 4° C.
Cell nuclei were stained with Hoechst S769121 (nuclear yellow). Cells were stored in 4° C. in the dark before imaging.
Images were taken using the automated ImageXpress® imaging system (Molecular Devices, Sunnyvale, Calif.) through a 10x objective microscope lens, displaying 4 or 9 sites per well. […] Cells were defined according to fluorescence intensity and size at different wavelengths. Data from all sites per well were averaged to one data point.
Neurons were pre-incubated with each compound for 1 h followed by application of FeSO4.

| Molecule | viability at 10 µM [%] |
| --- | --- |
| COc1cc2c(c(OC)c1OC)-c1ccc(OC)c(=O)cc1[C@@H](NC(C)=O)CC2 [COLCHICINE] | 3.12 |
| CN1[C@@H]2CC[C@H]1C[C@@H](OC(c1ccccc1)c1ccccc1)C2 [BENZTROPINE] | 11.4 |
| CC1=C(C(=O)O)N2C(=O)[C@@H](NC(=O)[C@H](N)c3ccccc3)[C@H]2SC1 [CEPHALEXIN] | 38.9 |
| Clc1cccc(Cl)c1N=C1NCCN1 [CLONIDINE HYDROCHLORIDE] | 7.47 |
| CC(C)C[C@H](CN)CC(=O)O [PREGABALIN] | 47.8 |

Same assay, conditions: Homo sapiens, Neuron; drug 10 μM 1 h before FeSO4 25 or 50 μM; MAP-2 neurons after 24 h; read-out: Drug % control (mean): number of neurons normalized to untreated control

| Molecule | viability at 10 µM [%] |
| --- | --- |
| COc1ccc(C(CN(C)C)C2(O)CCCCC2)cc1 (stereo not drawn) [VENLAFAXINE] | 72.5 |
| CCOC(=O)[C@H](CCc1ccccc1)N[C@H]1CCc2ccccc2N(CC(=O)O)C1=O [BENAZEPRIL HYDROCHLORIDE] | 72.2 |
| CCN(CCO)CCCC(C)Nc1ccnc2cc(Cl)ccc12 (stereo not drawn) [HYDROXYCHLOROQUINE SULFATE] | 75.9 |
| CC(CCc1ccccc1)NC(C)C(O)c1ccc(O)cc1 (stereo not drawn) [NYLIDRIN HYDROCHLORIDE] | 50.1 |
| COc1ccc2cc(CCC(C)=O)ccc2c1 [NABUMETONE] | 48.9 |
| CN1CCN(CCCN2c3ccccc3Sc3ccc(Cl)cc32)CC1 [PROCHLORPERAZINE EDISYLATE] | 4.88 |
| Cc1ccccc1C(OCCN(C)C)c1ccccc1 (stereo not drawn) [ORPHENADRINE CITRATE] | 54.5 |
| CCCNCC(O)COc1ccccc1C(=O)CCc1ccccc1 (stereo not drawn) [PROPAFENONE HYDROCHLORIDE] | 51.3 |
| Cc1noc(NS(=O)(=O)c2ccc(N)cc2)c1C [SULFISOXAZOLE] | 38.3 |
| C=CCN1CC[C@]23c4c5ccc(O)c4O[C@H]2C(=O)CC[C@@]3(O)[C@H]1C5 [NALOXONE HYDROCHLORIDE] | 69.5 |
| Cc1c(OCC(F)(F)F)ccnc1C[S+]([O-])c1nc2ccccc2[nH]1 (stereo not drawn) [LANSOPRAZOLE] | 63.9 |
| NC[C@@H]1O[C@H](O[C@H]2[C@@H](O)[C@H](O[C@@H]3[C@@H](O)[C@H](N)C[C@H](N)[C@H]3O[C@H]3O[C@H](CO)[C@@H](O)[C@H](O)[C@H]3N)O[C@@H]2CO)[C@H](N)[C@@H](O)[C@@H]1O [PAROMOMYCIN SULFATE] | 35.3 |
| CC1(C)O[C@@H]2[C@@H](CO[C@@]3(COS(N)(=O)=O)OC(C)(C)O[C@@H]23)O1 [TOPIRAMATE] | 46.1 |
| O=C1NC(=O)C(c2ccccc2)(c2ccccc2)N1 [PHENYTOIN SODIUM] | 30.1 |
| CN1CCN(CCCN2c3ccccc3Sc3ccc(C(F)(F)F)cc32)CC1 [TRIFLUOPERAZINE HYDROCHLORIDE] | 4.42 |
| COc1ccc2c(c1)c(CC(=O)O)c(C)n2C(=O)c1ccc(Cl)cc1 [INDOMETHACIN] | 4.52 |
| OCCOCCN1CCN(C(c2ccccc2)c2ccc(Cl)cc2)CC1 (stereo not drawn) [HYDROXYZINE PAMOATE] | 4.01 |
| CCN(CC)CCNC(=O)c1ccc(N)cc1 [PROCAINAMIDE HYDROCHLORIDE] | 64.3 |
| O=C1[C@H](CC[C@H](O)c2ccc(F)cc2)[C@@H](c2ccc(O)cc2)N1c1ccc(F)cc1 [EZETIMIBE] | 50.5 |
| CC[N+](C)(C)c1cccc(O)c1 [EDROPHONIUM CHLORIDE] | 44 |
| CC(=O)OCC(CCn1cnc2cnc(N)nc21)COC(C)=O [FAMCICLOVIR] | 91 |
| CO[C@H]1/C=C/O[C@@]2(C)Oc3c(C)c(O)c4c(O)c(c5c(nc6cc(C)ccn65)c4c3C2=O)NC(=O)/C(C)=C\C=C\[C@H](C)[C@H](O)[C@@H](C)[C@@H](O)[C@@H](C)[C@H](OC(C)=O)[C@@H]1C [RIFAXIMIN] | 53.8 |
| CN1CCN(C2=Nc3cc(Cl)ccc3Nc3ccccc32)CC1 [CLOZAPINE] | 101 |
| NC12CC3CC(CC(C3)C1)C2 [AMANTADINE HYDROCHLORIDE] | 52.6 |
| O=C(O)Cc1ccccc1Nc1c(Cl)cccc1Cl [DICLOFENAC SODIUM] | 5.92 |
| CCC(=O)O[C@H]1[C@H](O[C@@H]2[C@@H](C)[C@H](O[C@H]3C[C@@](C)(OC)[C@@H](O)[C@H](C)O3)[C@@H](C)C(=O)O[C@H](CC)[C@@](C)(O)[C@H](O)[C@@H](C)C(=O)[C@H](C)C[C@@]2(C)O)O[C@H](C)C[C@@H]1N(C)C [ERYTHROMYCIN ESTOLATE] | 56.7 |
| N=C(N)NC(=O)c1nc(Cl)c(N)nc1N [AMILORIDE HYDROCHLORIDE] | 37.1 |

| Molecule | viability at 10 µM [%] |
| --- | --- |
| Cc1ccccc1N1C(=O)c2cc(S(N)(=O)=O)c(Cl)cc2NC1C (stereo not drawn) [METOLAZONE] | 69 |
| CCCNC(=O)NS(=O)(=O)c1ccc(Cl)cc1 [CHLORPROPAMIDE] | 5.32 |
| CC[C@H](C)[C@H](N)C1=N[C@H](C(=O)N[C@@H](CC(C)C)C(=O)N[C@H](CCC(=O)O)C(=O)N[C@H](C(=O)N[C@H]2CCCCNC(=O)[C@H](CC(N)=O)NC(=O)[C@@H](CC(=O)O)NC(=O)[C@H](Cc3cnc[nH]3)NC(=O)[C@@H](Cc3ccccc3)NC(=O)[C@H]([C@@H](C)CC)NC(=O)[C@@H](CCCN)NC2=O)[C@@H](C)CC)CS1 [BACITRACIN] ({Ileψ(thiazoline)Cys}-L[dE]IK[dOrn]I[dF]H[dD]N; lactam 4-C) | 5.04 |
| N[C@@H](Cc1ccc(O)c(O)c1)C(=O)O [LEVODOPA] | 81.2 |
| Nc1cc(N2CCCCC2)nc(N)[n+]1[O-] [MINOXIDIL] | 33.7 |
| COc1ccccc1OCC(O)CO (stereo not drawn) [GUAIFENESIN] | 3.28 |
| C1N2CN3CN1CN(C2)C3 [METHENAMINE] | 1.94 |
| CN/C(=N/CCSCc1nc[nH]c1C)NC#N [CIMETIDINE] | 34.4 |
| Cc1cccc(Nc2ccccc2C(=O)O)c1C [MEFENAMIC ACID] | 57.2 |
| CN(C)CCc1c[nH]c2ccc(C[C@H]3COC(=O)N3)cc12 [ZOLMITRIPTAN] | 54.9 |
| CC(C)c1nc(N(C)S(C)(=O)=O)nc(-c2ccc(F)cc2)c1/C=C/[C@@H](O)C[C@@H](O)CC(=O)O [ROSUVASTATIN] | 35.4 |
| CN1CCC(=C2c3ccccc3CC(=O)c3sccc32)CC1 [KETOTIFEN FUMARATE] | 1.77 |
| CNCCCC12CCC(c3ccccc31)c1ccccc12 [MAPROTILINE HYDROCHLORIDE] | 0.61 |
| OC[C@H]1O[C@@H](O[C@@H]2[C@@H](CO)OC(O)(CO)[C@H]2O)[C@H](O)[C@@H](O)[C@H]1O (mixture of isomers) [LACTULOSE] | 80.8 |
| NS(=O)(=O)c1cc(C2(O)NC(=O)c3ccccc32)ccc1Cl (stereo not drawn) [CHLORTHALIDONE] | 7.66 |
| CC1(C)S[C@@H]2[C@H](NC(=O)[C@H](N)c3ccc(O)cc3)C(=O)N2[C@H]1C(=O)O [AMOXICILLIN] | 6.41 |
| O=C(O)c1cc(-c2ccc(F)cc2F)ccc1O [DIFLUNISAL] | 4.12 |
| NS(=O)(=O)c1cc2c(cc1Cl)NCNS2(=O)=O [HYDROCHLOROTHIAZIDE] | 2.55 |
| Nc1ccc(C(=O)O)cc1 [POTASSIUM p-AMINOBENZOATE] | 44.5 |
| Cc1ncc([N+](=O)[O-])n1CCO [METRONIDAZOLE] | 27.1 |
| CN(CCOc1ccc(CC2SC(=O)NC2=O)cc1)c1ccccn1 (stereo not drawn) [ROSIGLITAZONE] | 77.6 |
| CC(=O)Nc1nnc(S(N)(=O)=O)s1 [ACETAZOLAMIDE] | 23.6 |
| CC(C(=O)O)c1ccc(-c2ccccc2)c(F)c1 (stereo not drawn) [FLURBIPROFEN] | 4.63 |
| C[C@@H](CO)NC(=O)[C@@H]1C=C2c3cccc4[nH]cc(c34)C[C@H]2N(C)C1 [ERGONOVINE MALEATE] | 42.7 |
| CC(=O)Oc1ccc(C(c2ccc(OC(C)=O)cc2)c2ccccn2)cc1 [BISACODYL] | 93.3 |
| C=C[C@H]1C[N@@]2CC[C@H]1C[C@H]2[C@H](O)c1ccnc2ccc(OC)cc12 [QUININE SULFATE] | 21.3 |

Same assay, conditions: drug 10 μM 1 h before FeSO4 25 or 50 μM; MAP-2 neurons after 24 h

| Molecule | Drug % control (mean): number of neurons normalized to untreated control [%] |
| --- | --- |
| COc1ccc2cc([C@H](C)C(=O)O)ccc2c1 [NAPROXEN(+)] | 25.64 |
| NCC[C@H](O)C(=O)N[C@@H]1C[C@H](N)[C@@H](O[C@H]2O[C@H](CN)[C@@H](O)[C@H](O)[C@H]2O)[C@H](O)[C@H]1O[C@H]1O[C@H](CO)[C@@H](O)[C@H](N)[C@H]1O.O=S(=O)(O)O.O=S(=O)(O)O [AMIKACIN SULFATE] | 35.92 |
| CCCc1nc(C(C)(C)O)c(C(=O)OCc2oc(=O)oc2C)n1Cc1ccc(-c2ccccc2-c2nnn[nH]2)cc1 [OLIVEESARTAN MEDOXOMIL] | 55.85 |
| CRESOL | 6.04 |
| CCOc1nc2cccc(C(=O)OC(C)OC(=O)OC3CCCCC3)c2n1Cc1ccc(-c2ccccc2-c2nn[nH]n2)cc1 (stereo not drawn) [CANDESARTAN CILEXTIL] | 35.48 |
